Columns and labels:
[1] = tested on: cellulase surface-displaying yeast (arming yeast); conditions: 120 hours after the start of fermentation
[2] = tested on: yeast (MT 8-1)

| Molecule | ethanol yield relative to theoretical yield [1] | ethanol obtained ([1]; crystalline cellulose (Avicel) pretreated with [Emim][DEP], arming yeast, ionic liquid present) | yeast survivability (live cell counts) [2] |
| --- | --- | --- | --- |
| 1-ethyl-3-methylimidazolium diethylphosphate [[Emim][DEP]] | about 56% | 1.43 g/L | – |
| CCn1cc[n+](C)c1 [[Emim][Cl], 1-ethyl-3-methylimidazolium chloride] | – | – | not greatly affected |
